Laboratory results: ChEMBL document CHEMBL4699508, “Bioactivity-Guided Discovery of Human Carboxylesterase Inhibitors from the Roots of Paeonia lactiflora” (J Nat Prod, 2020)

How the values were obtained:
Liver carboxylesterase 1 = biological target: T1, Liver carboxylesterase 1 (Homo sapiens, UniProt P23141); assay: Inhibition of CES1A1 in human liver microsomes using D-luciferin methyl ester as substrate preincubated for 10 mins followed by substrate addition and measured after 10 mins by fluorescence assay
T1 sequence (P23141 whole entry): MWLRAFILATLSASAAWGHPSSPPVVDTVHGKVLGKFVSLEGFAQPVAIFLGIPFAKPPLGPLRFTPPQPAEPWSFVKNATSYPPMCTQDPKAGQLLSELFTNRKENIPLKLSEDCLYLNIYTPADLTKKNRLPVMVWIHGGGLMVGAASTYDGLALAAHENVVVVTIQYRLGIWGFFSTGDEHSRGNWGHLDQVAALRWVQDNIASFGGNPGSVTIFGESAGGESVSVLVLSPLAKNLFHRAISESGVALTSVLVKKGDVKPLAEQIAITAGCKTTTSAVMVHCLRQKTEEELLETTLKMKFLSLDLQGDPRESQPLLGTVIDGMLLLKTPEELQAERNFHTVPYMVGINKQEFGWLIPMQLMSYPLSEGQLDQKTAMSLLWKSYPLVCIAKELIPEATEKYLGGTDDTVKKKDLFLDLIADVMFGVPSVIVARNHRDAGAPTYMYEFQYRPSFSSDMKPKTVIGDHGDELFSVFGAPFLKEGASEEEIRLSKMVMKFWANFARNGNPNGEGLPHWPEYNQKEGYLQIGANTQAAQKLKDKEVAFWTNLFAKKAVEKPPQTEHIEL

Homo sapiens = species on record: Homo sapiens; assay: Selectivity ratio of IC50 for inhibition of CES2A1 in human liver microsomes to IC50 for CES1A1 in human liver microsomes; conditions: Microsome

SMILES	IC50 (Liver carboxylesterase 1)	Ratio IC50 (Homo sapiens)
CC1(C)CC[C@]2(C(=O)O)CC[C@]3(C)C(=CC[C@@H]4[C@@]5(C)CC[C@@H]6OC(C)(C)OC[C@@]6(C)[C@@H]5CC[C@]43C)[C@@H]2C1	0.1 µM	30
CC1(C)CC[C@]2(C)CC[C@]3(C)C(=CC[C@@H]4[C@@]5(C)CCC(=O)C(C)(C)[C@@H]5CC[C@]43C)[C@@H]2C1	0.1 µM	–
C[C@H]1[C@H](C)CC[C@]2(C(=O)O)CC[C@]3(C)C(=CC[C@@H]4[C@@]5(C)CC[C@H](O)C(C)(C)[C@@H]5CC[C@]43C)[C@H]12 [URSOLIC ACID]	0.1 µM	30
C=C1CC[C@]2(C(=O)O)CC[C@]3(C)C(=CC[C@@H]4[C@@]5(C)CC[C@@H]6OC(C)(C)OC[C@@]6(C)[C@@H]5CC[C@]43C)[C@@H]2C1	0.1 µM	30
CC1(C)CC[C@]2(C(=O)O)CC[C@]3(C)C(=CC[C@@H]4[C@@]5(C)CC[C@H](O)C(C)(C)[C@@H]5CC[C@]43C)[C@@H]2C1 [OLEANOLIC_ACID]	0.1 µM	30
C=C1CC[C@]2(C(=O)O)CC[C@]3(C)C(=CC[C@@H]4[C@@]5(C)CC[C@H](O)[C@@](C)(CO)[C@@H]5CC[C@]43C)[C@@H]2C1	0.1 µM	30
C=C(C)[C@@H]1CC[C@]2(C(=O)O)CC[C@]3(C)[C@H](CC[C@@H]4[C@@]5(C)CC[C@@H]6OC(C)(C)OC[C@@]6(C)[C@@H]5CC[C@]43C)[C@@H]12	0.1 µM	30
C=C(C)[C@@H]1CC[C@]2(C)CC[C@]3(C)[C@H](CC[C@@H]4[C@@]5(C)CC[C@H](O)C(C)(C)[C@@H]5CC[C@]43C)[C@@H]12 [LUPEOL]	0.1 µM	30
C=C(C)[C@@H]1CC[C@]2(C(=O)O)CC[C@]3(C)[C@H](CC[C@@H]4[C@@]5(C)CC[C@H](O)[C@@](C)(CO)[C@@H]5CC[C@]43C)[C@@H]12	0.1 µM	30
